Data as given in PMC3000476, “Amino acid derivatives are substrates or non-transported inhibitors of the amino acid transporter PAT2 (slc36a2)” (Biochimica et Biophysica Acta, 2011).
Each block holds one compound with its values, some of them ahead of it.

Assays:
PAT2 [1] = biological target: T1, PAT2 (Rattus norvegicus, UniProt Q8K415); test: inhibition of L-proline-induced current (TEVC) in PAT2-expressing oocytes; also uptake inhibition IC50 […]; type: cell-based
T1 construct: gene Slc36a2

PAT2 [2] = biological target: T1, PAT2
PAT2 [3] = biological target: T1, PAT2; test: L-[3H]pipecolic acid uptake and TEVC competition with glycine in PAT2-expressing oocytes; type: cell-based
PAT2 [4] = biological target: T1, PAT2; test: inhibition of L-[3H]proline uptake in PAT2-expressing Xenopus oocytes; TEVC; no trans-stimulation of efflux; type: cell-based
PAT2 [5] = biological target: T1, PAT2; test: competition with L-[3H]proline uptake in PAT2-expressing Xenopus oocytes; TEVC; type: cell-based
PAT2 [6] = biological target: T1, PAT2; test: competition with L-[3H]proline uptake in PAT2-expressing Xenopus oocytes; type: cell-based

T1 sequence (Q8K415 whole entry): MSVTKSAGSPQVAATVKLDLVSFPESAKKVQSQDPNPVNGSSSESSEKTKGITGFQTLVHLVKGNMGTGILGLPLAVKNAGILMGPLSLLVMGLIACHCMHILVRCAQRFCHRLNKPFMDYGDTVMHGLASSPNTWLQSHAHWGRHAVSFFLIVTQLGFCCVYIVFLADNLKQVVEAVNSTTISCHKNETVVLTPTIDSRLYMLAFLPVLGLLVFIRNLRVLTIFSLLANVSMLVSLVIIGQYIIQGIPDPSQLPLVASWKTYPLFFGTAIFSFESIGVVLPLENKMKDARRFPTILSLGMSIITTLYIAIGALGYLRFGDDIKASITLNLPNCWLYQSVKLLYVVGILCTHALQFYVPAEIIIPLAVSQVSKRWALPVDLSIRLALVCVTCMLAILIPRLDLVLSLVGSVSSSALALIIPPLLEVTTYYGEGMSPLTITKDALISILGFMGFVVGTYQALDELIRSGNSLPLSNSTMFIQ

IC50 (PAT2 [1]): 2700 ± 100 µM
SMILES: CC(N)(Cc1c[nH]c2ccccc12)C(=O)O (racemic) [Me-Trp, α-methyl-D,L-tryptophan]

L-[3H]pipecolic acid uptake (PAT2 [3]): 224 ± 19 pmol oocyte^− 1 (40 min)^− 1
SMILES: O=C(O)[C@@H]1CCCCN1 [L-Pip, L-pipecolic acid]

IC50 (PAT2 [4]): 1600 ± 400 µM
SMILES: N[C@@H](Cc1c[nH]c2ccc(O)cc12)C(=O)O [OH-Trp, 5-hydroxy-L-tryptophan]

The next lines start with the compound.

SMILES: NCC(=O)O [Gly, glycine]
[3H]glycine uptake, TEVC current and trans-stimulation of L-[3H]proline efflux i (PAT2 [2]): 934 ± 22 pmol oocyte^− 1 (40 min)^− 1

SMILES: O=C(O)[C@H]1NCC[C@@H]1O [T3HP, trans-3-hydroxy-L-proline]
IC50 (PAT2 [5]): 13100 ± 4200 µM

SMILES: O=C(O)[C@@H]1C[C@@H](O)CN1 [T4HP, trans-4-hydroxy-L-proline]
IC50 (PAT2 [6]): 700 ± 200 µM
